Test results taken from the NIST ThermoML archive (doi:10.1016/j.jct.2015.07.014).
± gives the expanded uncertainty stated by the source.

Experiment: xn = mol fraction of the nth substance listed
Details: Fluid (supercritical or subcritical phases), Buoyancy - hydrostatic balance with magnetic suspension - one sinker

N#N [nitrogen] + O=C=O
mass density [kg/m3]
Details	x1 = 0.95	x1 = 0.99
298.11 K, 30854 kPa	318.784 ± 0.58	–
298.15 K, 30889 kPa	–	306.308 ± 0.56
298.18 K, 10974 kPa	128.536 ± 0.23	–
298.18 K, 26965 kPa	–	276.485 ± 0.51
298.18 K, 28960 kPa	304.08 ± 0.55	291.991 ± 0.54
298.19 K, 10975 kPa	–	124.2 ± 0.22
298.19 K, 12974 kPa	151.108 ± 0.27	–
298.19 K, 12977 kPa	–	145.801 ± 0.26
298.19 K, 14973 kPa	173.056 ± 0.3	–
298.19 K, 14975 kPa	–	166.746 ± 0.3
298.19 K, 16968 kPa	194.247 ± 0.34	–
298.19 K, 16973 kPa	–	186.99 ± 0.34
298.19 K, 18971 kPa	214.733 ± 0.38	206.482 ± 0.38
298.19 K, 20971 kPa	–	225.196 ± 0.41
298.19 K, 20972 kPa	234.34 ± 0.42	–
298.19 K, 22968 kPa	253.055 ± 0.45	–
298.19 K, 22969 kPa	–	243.092 ± 0.45
298.19 K, 24966 kPa	270.906 ± 0.49	–
298.19 K, 24967 kPa	–	260.186 ± 0.48
298.19 K, 26964 kPa	287.919 ± 0.52	–
323.18 K, 10979 kPa	116.684 ± 0.21	–
323.18 K, 14973 kPa	156.725 ± 0.28	–
323.18 K, 28962 kPa	–	266.975 ± 0.47
323.18 K, 30957 kPa	291.768 ± 0.54	280.954 ± 0.48
323.19 K, 12977 kPa	136.963 ± 0.24	–
323.19 K, 14974 kPa	–	151.425 ± 0.26
323.19 K, 20974 kPa	212.443 ± 0.38	–
323.19 K, 22968 kPa	229.628 ± 0.42	–
323.19 K, 24967 kPa	246.174 ± 0.45	–
323.19 K, 24968 kPa	–	237.145 ± 0.41
323.19 K, 26966 kPa	–	252.374 ± 0.44
323.19 K, 28961 kPa	277.225 ± 0.5	–
323.2 K, 12978 kPa	–	132.477 ± 0.23
323.2 K, 16971 kPa	175.903 ± 0.32	–
323.2 K, 16973 kPa	–	169.822 ± 0.29
323.2 K, 18972 kPa	194.494 ± 0.35	–
323.2 K, 18975 kPa	–	187.629 ± 0.33
323.2 K, 20974 kPa	–	204.784 ± 0.36
323.2 K, 22971 kPa	–	221.285 ± 0.39
323.2 K, 26964 kPa	262.031 ± 0.47	–
323.21 K, 10980 kPa	–	112.998 ± 0.19
348.15 K, 14974 kPa	143.613 ± 0.25	–
348.16 K, 12976 kPa	125.56 ± 0.22	–
348.16 K, 26965 kPa	–	232.594 ± 0.4
348.16 K, 28963 kPa	–	246.335 ± 0.43
348.17 K, 10975 kPa	107.02 ± 0.19	103.828 ± 0.17
348.18 K, 12974 kPa	–	121.664 ± 0.21
348.18 K, 20972 kPa	–	188.207 ± 0.32
348.18 K, 24966 kPa	–	218.313 ± 0.38
348.18 K, 30959 kPa	–	259.551 ± 0.44
348.19 K, 16972 kPa	161.157 ± 0.28	–
348.19 K, 18968 kPa	–	172.299 ± 0.29
348.19 K, 30958 kPa	268.893 ± 0.48	–
348.2 K, 14978 kPa	–	139.081 ± 0.24
348.2 K, 22973 kPa	–	203.544 ± 0.35
348.2 K, 26965 kPa	240.883 ± 0.43	–
348.21 K, 16969 kPa	–	155.902 ± 0.27
348.21 K, 22970 kPa	210.667 ± 0.37	–
348.21 K, 24968 kPa	226.054 ± 0.4	–
348.22 K, 18976 kPa	178.236 ± 0.31	–
348.23 K, 20969 kPa	194.689 ± 0.34	–
348.24 K, 28961 kPa	255.123 ± 0.45	–
373.11 K, 14975 kPa	132.811 ± 0.23	–
373.14 K, 10975 kPa	99.052 ± 0.17	–
373.14 K, 10978 kPa	–	96.257 ± 0.16
373.14 K, 24968 kPa	–	202.615 ± 0.35
373.14 K, 26966 kPa	–	216.025 ± 0.37
373.16 K, 20970 kPa	180.142 ± 0.31	–
373.16 K, 28962 kPa	–	228.969 ± 0.39
373.17 K, 12975 kPa	116.113 ± 0.2	–
373.17 K, 12978 kPa	–	112.737 ± 0.19
373.17 K, 30957 kPa	249.734 ± 0.44	–
373.18 K, 14973 kPa	–	128.781 ± 0.22
373.18 K, 16969 kPa	148.99 ± 0.26	–
373.19 K, 18968 kPa	164.767 ± 0.28	–
373.19 K, 22970 kPa	194.991 ± 0.34	–
373.19 K, 24968 kPa	209.378 ± 0.36	–
373.19 K, 26966 kPa	223.295 ± 0.39	–
373.19 K, 30958 kPa	–	241.48 ± 0.41
373.2 K, 16976 kPa	–	144.455 ± 0.24
373.2 K, 18972 kPa	–	159.653 ± 0.27
373.2 K, 22969 kPa	–	188.731 ± 0.32
373.2 K, 28961 kPa	236.723 ± 0.41	–
373.21 K, 20974 kPa	–	174.438 ± 0.3
398.12 K, 10979 kPa	92.339 ± 0.16	–
398.15 K, 16976 kPa	–	134.736 ± 0.23
398.17 K, 10981 kPa	–	89.797 ± 0.15
398.17 K, 26965 kPa	–	201.89 ± 0.34
398.17 K, 30957 kPa	–	226.029 ± 0.38
398.17 K, 30958 kPa	233.41 ± 0.41	–
398.18 K, 28962 kPa	221.089 ± 0.38	–
398.18 K, 28963 kPa	–	214.146 ± 0.36
398.19 K, 14974 kPa	–	120.089 ± 0.2
398.19 K, 20968 kPa	–	162.734 ± 0.27
398.2 K, 12973 kPa	108.135 ± 0.18	–
398.2 K, 14975 kPa	123.655 ± 0.21	–
398.2 K, 18973 kPa	–	148.923 ± 0.25
398.2 K, 22966 kPa	–	176.162 ± 0.3
398.2 K, 24970 kPa	–	189.239 ± 0.32
398.21 K, 18973 kPa	153.504 ± 0.26	–
398.21 K, 22970 kPa	181.754 ± 0.31	–
398.21 K, 24969 kPa	195.274 ± 0.34	–
398.21 K, 26967 kPa	208.381 ± 0.36	–
398.22 K, 12974 kPa	–	105.084 ± 0.18
398.22 K, 20969 kPa	167.809 ± 0.29	–
398.23 K, 16974 kPa	138.767 ± 0.24	–
423.11 K, 14972 kPa	–	112.628 ± 0.19
423.13 K, 24967 kPa	183.194 ± 0.31	–
423.13 K, 26965 kPa	195.591 ± 0.33	–
423.13 K, 28962 kPa	207.636 ± 0.35	–
423.13 K, 30956 kPa	219.326 ± 0.37	–
423.14 K, 22965 kPa	170.413 ± 0.28	–
423.16 K, 16970 kPa	–	126.322 ± 0.21
423.16 K, 18970 kPa	143.837 ± 0.24	–
423.16 K, 20971 kPa	157.318 ± 0.26	–
423.17 K, 12979 kPa	–	98.597 ± 0.17
423.17 K, 18968 kPa	–	139.677 ± 0.24
423.18 K, 10978 kPa	86.517 ± 0.14	–
423.18 K, 10979 kPa	–	84.203 ± 0.14
423.18 K, 12971 kPa	101.311 ± 0.17	–
423.18 K, 14973 kPa	115.841 ± 0.19	–
423.18 K, 16967 kPa	129.977 ± 0.22	–
423.18 K, 20972 kPa	–	152.731 ± 0.26
423.18 K, 30957 kPa	–	212.642 ± 0.36
423.19 K, 22973 kPa	–	165.419 ± 0.28
423.21 K, 24968 kPa	–	177.709 ± 0.3
423.21 K, 28961 kPa	–	201.322 ± 0.34
423.22 K, 26966 kPa	–	189.691 ± 0.32
